Reference: article PMC4457528, “Identification of Novel Small Molecule Inhibitors of Oncogenic RET Kinase” (PLoS ONE, 2015)
Blank lines part the entries; values can stand above or below the compound they belong to.

Experiments:
[1] = tested on: RAT RET/M918T cells; experiment: Growth curves, RAT1 cells transformed by RET/M918T; assay type: cell-based; conditions: low serum, last day values, 95% CI in brackets, read-out: Growth inhibition IC50 dose: RAT RET/M918T
Protocol: (§1) To compare cell growth, we performed unpaired Student’s t test using the Instat software program (Graphpad Software Inc). P values were two-sided, and differences were considered statistically significant at P <.02. IC50 doses were calculated through a curve fitting analysis from last day values using the PRISM software program (Graphpad Software Inc).

[2] = molecular target: RET/M918T (Homo sapiens, UniProt P07949, M918T); experiment: cell-based; conditions: NIH3T3, read-out: inhibition of RET/M918T protein
Chain of RET/M918T (P07949 29-1072 isoform P07949-2 M918T limits assumed): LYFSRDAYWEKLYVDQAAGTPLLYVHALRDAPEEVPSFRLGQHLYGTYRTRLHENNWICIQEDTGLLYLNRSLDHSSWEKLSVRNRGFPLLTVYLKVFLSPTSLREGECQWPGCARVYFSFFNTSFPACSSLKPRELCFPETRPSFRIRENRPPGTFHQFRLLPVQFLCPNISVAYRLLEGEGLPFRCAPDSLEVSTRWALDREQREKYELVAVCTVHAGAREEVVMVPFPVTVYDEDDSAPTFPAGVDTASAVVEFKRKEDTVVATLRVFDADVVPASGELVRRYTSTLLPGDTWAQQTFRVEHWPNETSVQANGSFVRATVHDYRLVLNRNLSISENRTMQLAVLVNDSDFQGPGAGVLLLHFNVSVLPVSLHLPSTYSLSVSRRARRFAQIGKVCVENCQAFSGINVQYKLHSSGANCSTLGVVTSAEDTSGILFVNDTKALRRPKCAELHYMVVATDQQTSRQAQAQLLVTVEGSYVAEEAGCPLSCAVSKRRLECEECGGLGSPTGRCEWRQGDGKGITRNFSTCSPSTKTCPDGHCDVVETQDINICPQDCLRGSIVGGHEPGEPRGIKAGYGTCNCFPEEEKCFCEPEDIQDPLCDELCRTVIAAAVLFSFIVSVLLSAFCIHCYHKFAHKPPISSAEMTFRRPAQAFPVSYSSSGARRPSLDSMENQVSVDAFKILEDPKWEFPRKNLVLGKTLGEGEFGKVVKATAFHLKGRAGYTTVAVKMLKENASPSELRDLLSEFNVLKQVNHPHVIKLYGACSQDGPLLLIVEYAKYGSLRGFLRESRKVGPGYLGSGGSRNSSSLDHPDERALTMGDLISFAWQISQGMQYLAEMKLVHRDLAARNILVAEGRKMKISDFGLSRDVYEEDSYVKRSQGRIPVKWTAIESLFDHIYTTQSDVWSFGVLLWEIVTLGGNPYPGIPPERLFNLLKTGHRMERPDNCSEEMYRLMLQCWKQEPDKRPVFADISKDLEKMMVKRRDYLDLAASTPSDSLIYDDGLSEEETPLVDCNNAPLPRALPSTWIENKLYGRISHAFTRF

[3] = tested on: TPC-1 cells; experiment: Growth curves, TPC-1 papillary thyroid carcinoma cells (RET/PTC1); assay type: cell-based; conditions: Homo sapiens, TPC1; 2% serum; 95% CI in brackets; read-out: Growth inhibition IC50 dose TPC-1
Protocol: TT human cell line was obtained in 2002 from ATCC and authenticated by RET genotyping; it was derived from a MTC and harbors a cysteine 634 to tryptophan (C634W) RET mutation. TT cells were grown in RPMI 1640 supplemented with 20% fetal calf serum (GIBCO). MZ-CRC-1 human cells were kindly provided in 2009 by Robert F. Gagel (MD Anderson, Houston, TX) and authenticated by RET genotyping. […] Nthy-ori 3–1, a human thyroid follicular epithelial cell line immortalized by the SV40 large T gene, was obtained from European Collection of Cell Cultures (ECACC) (Wiltshire, UK) in 2010.
as §1

[4] = tested on: RET/C634Y; conditions: 10 nM, 2 hr, NIH3T3, Western blotting, data not shown
[5] = molecular target: T1, KinomeScan kinase panel (Homo sapiens, UniProt Q9H2X6); experiment: KinomeScan kinase panel, single concentration 10 µM; assay type: binding; conditions: HIPK2, 10 µM; read-out: score (%)
T1 construct: purchased DiscoveRx (KinomeScan)

[6] = molecular target: T2, KinomeScan kinase panel (Homo sapiens, UniProt O15197); experiment: as above; assay type: binding; conditions: EPHB6, 10 µM; read-out: score (%)
T2 construct: purchased DiscoveRx (KinomeScan)
T2 sequence (O15197 32-1021): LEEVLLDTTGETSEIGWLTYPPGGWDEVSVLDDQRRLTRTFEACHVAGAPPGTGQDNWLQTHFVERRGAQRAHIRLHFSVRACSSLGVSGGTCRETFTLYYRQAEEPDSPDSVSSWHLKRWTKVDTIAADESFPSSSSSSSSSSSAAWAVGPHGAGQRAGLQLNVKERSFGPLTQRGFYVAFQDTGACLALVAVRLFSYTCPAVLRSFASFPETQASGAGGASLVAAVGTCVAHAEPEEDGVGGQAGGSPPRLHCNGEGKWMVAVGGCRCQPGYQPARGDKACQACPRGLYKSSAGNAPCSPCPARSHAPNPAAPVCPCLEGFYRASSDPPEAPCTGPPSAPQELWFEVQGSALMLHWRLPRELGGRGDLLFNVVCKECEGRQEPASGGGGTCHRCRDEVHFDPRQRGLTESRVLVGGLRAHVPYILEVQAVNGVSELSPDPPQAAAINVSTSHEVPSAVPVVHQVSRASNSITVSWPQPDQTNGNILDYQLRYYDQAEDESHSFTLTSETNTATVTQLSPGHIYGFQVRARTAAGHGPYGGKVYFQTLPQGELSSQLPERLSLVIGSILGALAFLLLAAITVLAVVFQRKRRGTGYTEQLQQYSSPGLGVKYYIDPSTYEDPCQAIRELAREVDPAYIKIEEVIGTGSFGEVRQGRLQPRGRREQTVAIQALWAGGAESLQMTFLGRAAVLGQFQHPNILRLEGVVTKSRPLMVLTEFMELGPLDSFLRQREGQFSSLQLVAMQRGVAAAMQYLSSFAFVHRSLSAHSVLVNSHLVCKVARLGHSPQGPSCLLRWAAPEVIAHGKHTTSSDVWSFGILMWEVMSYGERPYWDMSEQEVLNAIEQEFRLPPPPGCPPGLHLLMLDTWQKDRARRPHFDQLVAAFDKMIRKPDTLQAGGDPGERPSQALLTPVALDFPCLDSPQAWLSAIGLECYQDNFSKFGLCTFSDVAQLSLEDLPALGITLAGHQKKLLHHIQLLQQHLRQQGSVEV

[7] = molecular target: T3, KinomeScan kinase panel (Homo sapiens, UniProt P08581, M1250T); experiment: as above; assay type: binding; conditions: MET(M1250T), 10 µM
T3 construct: purchased DiscoveRx (KinomeScan)
T3 sequence (P08581 25-1390 M1250T): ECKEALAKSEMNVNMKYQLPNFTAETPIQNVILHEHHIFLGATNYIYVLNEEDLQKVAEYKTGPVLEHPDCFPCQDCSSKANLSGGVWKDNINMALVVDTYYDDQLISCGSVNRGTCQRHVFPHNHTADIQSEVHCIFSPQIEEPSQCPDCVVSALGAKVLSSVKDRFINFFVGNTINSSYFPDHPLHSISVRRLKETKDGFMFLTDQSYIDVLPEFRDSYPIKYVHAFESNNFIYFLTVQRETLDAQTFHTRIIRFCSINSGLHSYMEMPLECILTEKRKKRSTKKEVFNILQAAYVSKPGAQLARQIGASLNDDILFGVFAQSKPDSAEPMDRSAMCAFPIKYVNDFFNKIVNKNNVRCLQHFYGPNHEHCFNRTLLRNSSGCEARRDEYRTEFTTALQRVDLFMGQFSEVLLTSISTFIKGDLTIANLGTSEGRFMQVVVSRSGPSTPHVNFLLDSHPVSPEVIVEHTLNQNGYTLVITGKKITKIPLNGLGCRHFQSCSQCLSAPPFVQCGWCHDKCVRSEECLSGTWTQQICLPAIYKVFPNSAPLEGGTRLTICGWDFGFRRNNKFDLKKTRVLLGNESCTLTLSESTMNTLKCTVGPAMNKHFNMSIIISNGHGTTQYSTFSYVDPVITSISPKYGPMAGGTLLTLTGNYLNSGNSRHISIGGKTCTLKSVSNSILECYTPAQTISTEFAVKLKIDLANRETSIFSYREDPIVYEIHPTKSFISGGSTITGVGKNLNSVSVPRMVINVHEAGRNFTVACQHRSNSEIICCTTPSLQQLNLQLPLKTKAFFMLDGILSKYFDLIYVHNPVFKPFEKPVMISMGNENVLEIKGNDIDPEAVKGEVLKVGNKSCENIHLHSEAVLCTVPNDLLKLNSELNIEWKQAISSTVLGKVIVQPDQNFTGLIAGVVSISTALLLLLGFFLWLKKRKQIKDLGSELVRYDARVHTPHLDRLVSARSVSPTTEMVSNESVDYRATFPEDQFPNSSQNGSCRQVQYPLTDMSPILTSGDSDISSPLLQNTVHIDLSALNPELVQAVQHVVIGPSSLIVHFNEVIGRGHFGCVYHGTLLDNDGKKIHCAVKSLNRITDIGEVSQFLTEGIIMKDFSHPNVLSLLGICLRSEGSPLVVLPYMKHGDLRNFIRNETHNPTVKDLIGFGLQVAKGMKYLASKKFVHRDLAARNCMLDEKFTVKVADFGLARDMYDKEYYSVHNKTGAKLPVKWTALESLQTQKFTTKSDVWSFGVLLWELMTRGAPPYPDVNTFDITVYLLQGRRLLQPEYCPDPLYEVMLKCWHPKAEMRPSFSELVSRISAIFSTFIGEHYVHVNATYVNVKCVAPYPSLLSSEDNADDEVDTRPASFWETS

[8] = molecular target: T4, KinomeScan kinase panel (Homo sapiens, UniProt Q9Y2H9); experiment: as above; assay type: binding; conditions: MAST1, 10 µM; read-out: score (%)
T4 construct: purchased DiscoveRx (KinomeScan)
T4 sequence (Q9Y2H9 whole entry): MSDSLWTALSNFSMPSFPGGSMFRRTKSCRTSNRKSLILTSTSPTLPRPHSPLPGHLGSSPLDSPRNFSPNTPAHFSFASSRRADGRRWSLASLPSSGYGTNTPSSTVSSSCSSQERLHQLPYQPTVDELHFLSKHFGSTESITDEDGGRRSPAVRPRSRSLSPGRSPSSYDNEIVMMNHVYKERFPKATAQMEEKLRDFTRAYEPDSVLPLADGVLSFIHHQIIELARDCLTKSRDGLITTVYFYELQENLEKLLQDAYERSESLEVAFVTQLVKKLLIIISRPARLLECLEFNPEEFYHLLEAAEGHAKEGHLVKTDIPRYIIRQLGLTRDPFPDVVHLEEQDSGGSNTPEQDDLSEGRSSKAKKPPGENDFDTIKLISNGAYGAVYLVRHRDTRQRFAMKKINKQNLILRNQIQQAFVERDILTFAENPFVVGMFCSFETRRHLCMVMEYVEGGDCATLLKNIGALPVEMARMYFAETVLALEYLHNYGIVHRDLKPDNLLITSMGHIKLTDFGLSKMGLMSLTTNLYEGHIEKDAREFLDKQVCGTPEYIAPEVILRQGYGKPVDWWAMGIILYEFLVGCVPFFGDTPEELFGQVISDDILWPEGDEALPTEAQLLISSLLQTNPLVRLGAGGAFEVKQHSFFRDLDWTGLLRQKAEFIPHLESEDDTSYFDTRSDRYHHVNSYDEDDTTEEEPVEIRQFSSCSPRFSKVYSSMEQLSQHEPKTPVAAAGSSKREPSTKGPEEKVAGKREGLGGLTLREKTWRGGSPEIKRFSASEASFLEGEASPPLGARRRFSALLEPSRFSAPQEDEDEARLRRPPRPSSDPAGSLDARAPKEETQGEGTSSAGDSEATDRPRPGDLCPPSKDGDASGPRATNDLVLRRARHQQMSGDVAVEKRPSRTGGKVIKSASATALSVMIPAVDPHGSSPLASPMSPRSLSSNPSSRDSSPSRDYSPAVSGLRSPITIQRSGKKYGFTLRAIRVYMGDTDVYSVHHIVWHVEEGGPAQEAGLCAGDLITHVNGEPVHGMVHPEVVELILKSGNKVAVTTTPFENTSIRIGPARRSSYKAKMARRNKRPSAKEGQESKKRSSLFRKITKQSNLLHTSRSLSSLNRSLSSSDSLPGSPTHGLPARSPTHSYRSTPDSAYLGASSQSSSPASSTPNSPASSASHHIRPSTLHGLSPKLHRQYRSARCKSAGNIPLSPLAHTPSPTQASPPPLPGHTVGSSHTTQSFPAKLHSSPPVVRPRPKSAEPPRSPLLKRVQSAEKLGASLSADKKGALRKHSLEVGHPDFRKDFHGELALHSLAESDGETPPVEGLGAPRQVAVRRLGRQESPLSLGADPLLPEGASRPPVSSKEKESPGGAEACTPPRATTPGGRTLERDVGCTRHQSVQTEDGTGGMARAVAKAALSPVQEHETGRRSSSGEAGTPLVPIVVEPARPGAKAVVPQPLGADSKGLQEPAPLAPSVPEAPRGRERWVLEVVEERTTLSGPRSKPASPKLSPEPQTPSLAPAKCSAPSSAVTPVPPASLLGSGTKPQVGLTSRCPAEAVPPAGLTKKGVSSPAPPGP

[9] = molecular target: T5, KinomeScan kinase panel (Homo sapiens, UniProt Q56UN5); experiment: as above; assay type: binding; conditions: kinase YSK4; 10 µM; read-out: score (%)
T5 construct: purchased DiscoveRx (KinomeScan)

[10] = molecular target: T6, KinomeScan kinase panel (Homo sapiens, UniProt Q15208); experiment: as above; assay type: binding; conditions: NDR1, 10 µM; read-out: score (%)
T6 construct: purchased DiscoveRx (KinomeScan)

[11] = molecular target: T7, KinomeScan kinase panel (Homo sapiens, UniProt Q9UHD2); experiment: as above; assay type: binding; conditions: kinase TBK1; 10 µM; read-out: score (%)
T7 construct: purchased DiscoveRx (KinomeScan)

[12] = molecular target: T8, KinomeScan kinase panel (Homo sapiens, UniProt P42336, M1043I); experiment: as above; assay type: binding; conditions: PIK3CA(M1043I), 10 µM; read-out: score (%)
T8 construct: purchased DiscoveRx (KinomeScan)

[13] = molecular target: T9, KinomeScan kinase panel (Homo sapiens, UniProt P36888); experiment: as above; assay type: binding; conditions: FLT3, 10 µM; read-out: score (%)
T9 construct: purchased DiscoveRx (KinomeScan)
T9 sequence (P36888 27-993): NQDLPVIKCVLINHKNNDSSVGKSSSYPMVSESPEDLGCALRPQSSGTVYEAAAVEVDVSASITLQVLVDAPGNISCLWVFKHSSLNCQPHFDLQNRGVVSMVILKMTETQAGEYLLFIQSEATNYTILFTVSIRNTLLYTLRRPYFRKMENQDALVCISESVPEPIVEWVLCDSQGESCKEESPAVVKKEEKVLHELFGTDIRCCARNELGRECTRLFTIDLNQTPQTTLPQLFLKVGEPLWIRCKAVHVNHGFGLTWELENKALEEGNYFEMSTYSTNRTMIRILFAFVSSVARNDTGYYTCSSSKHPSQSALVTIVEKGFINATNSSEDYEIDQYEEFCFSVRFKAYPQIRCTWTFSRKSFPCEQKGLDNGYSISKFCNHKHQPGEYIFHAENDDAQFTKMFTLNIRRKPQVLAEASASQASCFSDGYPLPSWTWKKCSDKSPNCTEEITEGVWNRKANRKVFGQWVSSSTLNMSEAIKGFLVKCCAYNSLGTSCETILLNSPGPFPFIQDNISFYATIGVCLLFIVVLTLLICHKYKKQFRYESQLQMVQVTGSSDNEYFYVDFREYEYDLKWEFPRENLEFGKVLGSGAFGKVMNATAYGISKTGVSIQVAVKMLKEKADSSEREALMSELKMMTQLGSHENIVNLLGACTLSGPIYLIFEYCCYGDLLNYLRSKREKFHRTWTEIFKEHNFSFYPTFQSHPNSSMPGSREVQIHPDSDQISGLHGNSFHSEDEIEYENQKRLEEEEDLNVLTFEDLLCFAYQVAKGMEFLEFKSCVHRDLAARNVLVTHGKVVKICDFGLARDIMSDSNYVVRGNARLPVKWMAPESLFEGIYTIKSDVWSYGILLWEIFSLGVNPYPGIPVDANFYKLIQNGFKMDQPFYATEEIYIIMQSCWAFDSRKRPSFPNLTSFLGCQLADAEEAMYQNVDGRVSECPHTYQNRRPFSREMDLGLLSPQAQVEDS

[14] = molecular target: T10, KinomeScan kinase panel (Homo sapiens, UniProt P42336, H1047L); experiment: as above; assay type: binding; conditions: PIK3CA(H1047L), 10 µM; read-out: score (%)
T10 construct: purchased DiscoveRx (KinomeScan)

[15] = molecular target: T11, KinomeScan kinase panel (Homo sapiens, UniProt P00533, L858R/T790M); experiment: as above; assay type: binding; conditions: EGFR(L858R.T790M), 10 µM
T11 construct: purchased DiscoveRx (KinomeScan)

[16] = molecular target: T12, KinomeScan kinase panel (Homo sapiens, UniProt Q9Y6M4); experiment: as above; assay type: binding; conditions: CSNK1G3, 10 µM
T12 construct: purchased DiscoveRx (KinomeScan)

[17] = molecular target: T13, KinomeScan kinase panel (Homo sapiens, UniProt P20794); experiment: as above; assay type: binding; conditions: MAK, 10 µM; read-out: score (%)
T13 construct: purchased DiscoveRx (KinomeScan)

[18] = molecular target: T14, KinomeScan kinase panel (Homo sapiens, UniProt P42336, Q546K); experiment: as above; assay type: binding; conditions: PIK3CA(Q546K), 10 µM; read-out: score (%)
T14 construct: purchased DiscoveRx (KinomeScan)

[19] = molecular target: T15, KinomeScan kinase panel (Homo sapiens, UniProt Q9UEW8); experiment: as above; assay type: binding; conditions: kinase STK39; 10 µM; read-out: score (%)
T15 construct: purchased DiscoveRx (KinomeScan)

Structure (SMILES): CCN1CCN(Cc2ccc(NC(=O)c3ccc(C)c(C#Cc4cccnc4)c3)cc2C(F)(F)F)CC1 [XMD15-44]
IC50 [1]: 8.3 nM | inhibition at 0.01 µM [2]: > 30% | IC50 [3]: 37.1 nM | inhibition of RET/C634Y protein [4]: > 30% | remaining binding at 10 µM [5]: > 30% | remaining binding at 10 µM [6]: 8.8% | score (%) [7]: nb (Hits values higher than 30% were considered negative (no binding: nb)) | remaining binding at 10 µM [8]: > 30% | remaining binding at 10 µM [9]: 0.1% | remaining binding at 10 µM [10]: 4% | remaining binding at 10 µM [11]: 100% | remaining binding at 10 µM [12]: 83% | remaining binding at 10 µM [13]: 0.25% | remaining binding at 10 µM [14]: 100% | score (%) [15]: nb (Hits values higher than 30% were considered negative (no binding: nb)) | score (%) [16]: nb (Hits values higher than 30% were considered negative (no binding: nb)) | remaining binding at 10 µM [17]: 9% | remaining binding at 10 µM [18]: 100% | remaining binding at 10 µM [19]: 89%

inhibition at 0.01 µM [2]: > 30% | IC50 [3]: 9.8 nM | remaining binding at 10 µM [13]: 0.1%
Structure (SMILES): CCN1CCN(Cc2ccc(NC(=O)c3ccc(C)c(/C=C/c4cnc5[nH]ccc5c4Cl)c3)cc2C(F)(F)F)CC1 [HG-6-63-01, (E)-3-(2-(4-chloro-1H-pyrrolo[2,3-b]pyridin-5-yl)vinyl)-N-(4-((4-ethylpiperazin-1-yl)methyl)-3-(trifluoromethyl)phenyl)-4-methylbenzamide]
IC50 [1]: 16 nM | inhibition of RET/C634Y protein [4]: > 30% | score (%) [16]: nb (Hits values higher than 30% were considered negative (no binding: nb))

Structure (SMILES): CCN1CCN(Cc2ccc(NC(=O)c3ccc(C)c(NC(=O)c4cncc(-c5cccs5)c4)c3)cc2C(F)(F)F)CC1 [ALW-II-41-27]
IC50 [1]: 56 nM | inhibition at 0.01 µM [2]: > 30% | IC50 [3]: 19.7 nM | inhibition of RET/C634Y protein [4]: > 30% | remaining binding at 10 µM [5]: > 30% | remaining binding at 10 µM [6]: 1.2% | score (%) [7]: nb (Hits values higher than 30% were considered negative (no binding: nb)) | remaining binding at 10 µM [8]: > 30% | remaining binding at 10 µM [9]: 21% | remaining binding at 10 µM [10]: > 30% | remaining binding at 10 µM [11]: > 30% | remaining binding at 10 µM [12]: > 30% | remaining binding at 10 µM [13]: 0.65% | remaining binding at 10 µM [14]: > 30% | score (%) [15]: nb (Hits values higher than 30% were considered negative (no binding: nb)) | remaining binding at 10 µM [17]: > 30% | remaining binding at 10 µM [18]: > 30% | remaining binding at 10 µM [19]: > 30%
